Reference: patent US8524766B2, “Modulators of dopamine neurotransmission” (NSAB, Filial af Neurosearch Sweden AB, Sverige, priority 2008, dated 2013)
Counter-ions that a name gives are not always drawn.

Key:
[1] = system: DOPAC (3,4-dihydroxyphenylacetic acid) in the rat striatum; test: Increase of DOPAC in the rat striatum after systemic administration (in vivo neurochemistry); details: sc; estimated ED50 on increase of DOPAC in rat striatum, systemic administration (s.c.), curve fitting
Source text: After the behavioural activity sessions, the rats are decapitated and their brains rapidly taken out and put on an ice-cold petri-dish. The limbic forebrain, the striatum, the frontal cortex and the remaining hemispheral parts of each rat are dissected and frozen. Each brain part is subsequently analyzed with respect to its content of monoamines and their metabolites.
The monoamine transmitter substances (NA (noradrenaline), DA (dopamine), 5-HT (serotonin)) as well as their amine (NM (normethanephrine), 3-MT (3-methoxytyramine)) and acid (DOPAC (3,4-dihydroxyphenylacetic acid), 5-HIAA (5-hydroxyindoleacetic acid), HVA (homovanillic acid)) metabolites are quantified in brain tissue homogenates by HPLC separations and electrochemical detection.
The analytical method is based on two chromatographic separations dedicated for amines or acids. Two chromatographic systems share a common auto injector with a 10-port valve and two sample loops for simultaneous injection on the two systems. Both systems are equipped with a reverse phase column (Luna C18(2), dp 3 μm, 50*2 mm i.d., Phenomenex) and electrochemical detection is accomplished at two potentials on glassy carbon electrodes (MF-1000, Bioanalytical Systems, Inc.). The column effluent is passed via a T-connection to the detection cell or to a waste outlet. This is accomplished by two solenoid valves, which block either the waste or detector outlet. By preventing the chromatographic front from reaching the detector, better detection conditions are achieved. The aqueous mobile phase (0.4 ml/min) for the acid system contains citric acid 14 mM, sodium citrate 10 mM, MeOH 15% (v/v) and EDTA 0.1 mM. Detection potentials relative to Ag/AgCl reference are 0.45 and 0.60V. The aqueous ion pairing mobile phase (0.5 ml/min) for the amine system contains citric acid 5 mM, sodium citrate 10 mM, MeOH 9% (v/v), MeCN 10.5% v/v), decane sulfonic acid 0.45 mM, and EDTA 0.1 mM. Detection potentials relative to Ag/AgCl reference are 0.45 and 0.65V.
ED50 values for the increase of DOPAC in striatum are calculated by curve fitting.

drug-naive rats = test: Locomotor activity in drug-naive rats (in vivo behaviour); set-up: species or system rat; details: recorded for 60 minutes, ± SEM
Source text: Photobeam sensors are spaced 2.5 cm apart.

melting point [°C]	Structure (SMILES)	other results
159	CC1CCCN(C[C@@H]2COc3ccc(S(C)(=O)=O)cc3O2)C1 (stereo partly drawn) (as salt: fumaric acid salt)	–
221	CS(=O)(=O)c1ccc2c(c1)OC(CN1CCCC1)CO2 (stereo not drawn) (as salt: hydrochloric acid salt)	–
213	CC(C)CNC[C@@H]1COc2ccc(S(C)(=O)=O)cc2O1 (as salt: hydrochloric acid salt)	–
214	CC(C)CNC[C@H]1COc2ccc(S(C)(=O)=O)cc2O1 (as salt: hydrochloric acid salt)	–
243	CNCC1COc2c(F)cc(S(C)(=O)=O)cc2O1 (stereo not drawn) (as salt: hydrochloric acid salt)	–
208	CCNC[C@H]1COc2ccc(S(=O)(=O)C(F)(F)F)cc2O1 (as salt: hydrochloric acid salt)	–
270	CCNC[C@H]1COc2ccc(S(C)(=O)=O)c(F)c2O1 (as salt: hydrochloric acid salt)	–
267	CCNC[C@H]1COc2c(Cl)cc(S(C)(=O)=O)cc2O1 (as salt: hydrochloric acid salt)	–
204	CS(=O)(=O)c1ccc2c(c1)O[C@@H](CNCCC(F)(F)F)CO2 (as salt: hydrochloric acid salt)	–
261	CCNCC1COc2ccc(S(C)(=O)=O)cc2O1 (stereo not drawn) (as salt: hydrochloric acid salt)	–
233	CS(=O)(=O)c1cc(F)c2c(c1)O[C@@H](CNCCC(F)(F)F)CO2 (as salt: hydrochloric acid salt)	–
260	CNC[C@H]1COc2c(F)cc(S(C)(=O)=O)cc2O1 (as salt: hydrochloric acid salt)	–
271	CCNC[C@H]1COc2ccc(S(C)(=O)=O)cc2O1 (as salt: hydrochloric acid salt)	–
262	CNC[C@H]1COc2c(Cl)cc(S(C)(=O)=O)cc2O1 (as salt: hydrochloric acid salt)	–
242	CC(C)(C)CNC[C@H]1COc2ccc(S(C)(=O)=O)cc2O1 (as salt: hydrochloric acid salt)	–
251	CS(=O)(=O)c1cc(F)c2c(c1)O[C@@H](CN1CCOCC1)CO2 (as salt: hydrochloric acid salt)	–
223	CCCNCC1COc2ccc(S(C)(=O)=O)cc2O1 (stereo not drawn) (as salt: hydrochloric acid salt) [Example 1, N-{[7-(METHYLSULFONYL)-2,3-DIHYDRO-1,4-BENZODIOXIN-2-YL]METHYL}-PROPAN-1-AMINE]	–
228	CCCNC[C@@H]1COc2ccc(S(C)(=O)=O)cc2O1 (as salt: hydrochloric acid salt) [Example 2, N-{[(2R)-7-(METHYLSULFONYL)-2,3-DIHYDRO-1,4-BENZODIOXIN-2-YL]METHYL}-PROPAN-1-AMINE]	–

melting point [°C]	Structure (SMILES)	other results
228	CCCNC[C@H]1COc2ccc(S(C)(=O)=O)cc2O1 (as salt: hydrochloric acid salt) [Example 3, N-{[(2S)-7-(METHYLSULFONYL)-2,3-DIHYDRO-1,4-BENZODIOXIN-2-YL]METHYL}-PROPAN-1-AMINE]	–
248	CS(=O)(=O)c1ccc2c(c1)OC(CN1CCCCC1)CO2 (stereo not drawn) (as salt: hydrochloric acid salt) [Example 6, 1-{[7-(METHYLSULFONYL)-2,3-DIHYDRO-1,4-BENZODIOXIN-2-YL]METHYL}PIPERIDINE]	–
227	CS(=O)(=O)c1ccc2c(c1)O[C@@H](CN1CCCCC1)CO2 (as salt: hydrochloric acid salt) [Example 7, 1-{[(2S)-7-(METHYLSULFONYL)-2,3-DIHYDRO-1,4-BENZODIOXIN-2-YL]METHYL}PIPERIDINE]	–
226	CS(=O)(=O)c1ccc2c(c1)O[C@H](CN1CCCCC1)CO2 (as salt: hydrochloric acid salt) [Example 8, 1-{[(2R)-7-(METHYLSULFONYL)-2,3-DIHYDRO-1,4-BENZODIOXIN-2-YL]METHYL}PIPERIDINE]	–
273	CNCC1COc2ccc(S(C)(=O)=O)cc2O1 (stereo not drawn) (as salt: hydrochloric acid salt) [Example 9, N-METHYL-1-[7-(METHYLSULFONYL)-2,3-DIHYDRO-1,4-BENZODIOXIN-2-YL]METHANAMINE]	–
248	CNC[C@H]1COc2ccc(S(C)(=O)=O)cc2O1 (as salt: hydrochloric acid salt) [Example 10, N-METHYL-1-[(2S)-7-(METHYLSULFONYL)-2,3-DIHYDRO-1,4-BENZODIOXIN-2-YL]METHANAMINE]	–
222	CCCN(C)CC1COc2ccc(S(C)(=O)=O)cc2O1 (stereo not drawn) (as salt: hydrochloric acid salt) [Example 15, N-METHYL-N-{[7-(METHYLSULFONYL)-2,3-DIHYDRO-1,4-BENZODIOXIN-2-YL]METHYL}PROPAN-1-AMINE]	–
182	CCCN(CCC)CC1COc2ccc(S(C)(=O)=O)cc2O1 (stereo not drawn) (as salt: hydrochloric acid salt) [Example 16, N-{[7-(METHYLSULFONYL)-2,3-DIHYDRO-1,4-BENZODIOXIN-2-YL]METHYL}-N-PROPYLPROPAN-1-AMINE]	–
256	CCNCC1COc2c(F)cc(S(C)(=O)=O)cc2O1 (stereo not drawn) (as salt: hydrochloric acid salt) [Example 18, N-{[5-FLUORO-7-(METHYLSULFONYL)-2,3-DIHYDRO-1,4-BENZODIOXIN-2-YL]METHYL}ETHANAMINE]	–
274	CCNC[C@H]1COc2c(F)cc(S(C)(=O)=O)cc2O1 (as salt: hydrochloric acid salt) [Example 19, N-{[(2S)-5-FLUORO-7-(METHYLSULFONYL)-2,3-DIHYDRO-1,4-BENZODIOXIN-2-YL]METHYL}ETHANAMINE]	–
226	CCCNC[C@H]1COc2c(F)cc(S(C)(=O)=O)cc2O1 (as salt: hydrochloric acid salt) [Example 21, N-{[(2S)-5-FLUORO-7-(METHYLSULFONYL)-2,3-DIHYDRO-1,4-BENZODIOXIN-2-YL]METHYL}PROPAN-1-AMINE]	–
175	CCCNC[C@H]1COc2ccc(S(=O)(=O)C(F)(F)F)cc2O1 (as salt: hydrochloric acid salt) [Example 24, N-{[(2S)-7-(TRIFLUOROMETHYLSULFONYL)-2,3-DIHYDRO-1,4-BENZODIOXIN-2-YL]METHYL}PROPAN-1-AMINE]	–
192	CCCNC[C@H]1COc2c(F)cc(S(C)(=O)=O)cc2O1 (as salt: hydrochloric acid salt) [Example 76, N-{[(2S)-5-FLUORO-7-(METHYLSULFONYL)-2,3-DIHYDRO-1,4-BENZODIOXIN-2-YL]METHYL}-PROPAN-1-AMINE]	–
196.2 to 196.5	CC(C)NC[C@H]1COc2ccc(S(=O)(=O)C(F)(F)F)cc2O1 (as salt: hydrochloric acid salt) [Example 98, N-({(2S)-7-[(TRIFLUOROMETHYL)SULFONYL]-2,3-DIHYDRO-1,4-BENZODIOXIN-2-YL}METHYL)PROPAN-2-AMINE]	–
–	CCCNC[C@@H]1COc2ccc(S(C)(=O)=O)cc2O1 [Example 2, N-{[(2R)-7-(METHYLSULFONYL)-2,3-DIHYDRO-1,4-BENZODIOXIN-2-YL]METHYL}-PROPAN-1-AMINE]	ED50 [1]: 47 µmol/kg; Locomotor activity (drug-naive rats; 3.7 μmol/kg): 10728 ± 1557 counts/60 min; Locomotor activity (drug-naive rats; 11 μmol/kg): 10346 ± 857 counts/60 min; Locomotor activity (drug-naive rats; 33 μmol/kg): 11427 ± 1559 counts/60 min
–	CCCNC[C@H]1COc2ccc(S(C)(=O)=O)cc2O1 [Example 3, N-{[(2S)-7-(METHYLSULFONYL)-2,3-DIHYDRO-1,4-BENZODIOXIN-2-YL]METHYL}-PROPAN-1-AMINE]	ED50 [1]: 6.1 µmol/kg; Locomotor activity (drug-naive rats; 3.7 μmol/kg): 10297 ± 860 counts/60 min; Locomotor activity (drug-naive rats; 11 μmol/kg): 8973 ± 2186 counts/60 min; Locomotor activity (drug-naive rats; 33 μmol/kg): 6830 ± 128 counts/60 min
–	CS(=O)(=O)c1ccc2c(c1)O[C@@H](CN1CCCCC1)CO2 [Example 7, 1-{[(2S)-7-(METHYLSULFONYL)-2,3-DIHYDRO-1,4-BENZODIOXIN-2-YL]METHYL}PIPERIDINE]	ED50 [1]: 12 µmol/kg; Locomotor activity (drug-naive rats; 3.7 μmol/kg): 7905 ± 656 counts/60 min; Locomotor activity (drug-naive rats; 11 μmol/kg): 5469 ± 734 counts/60 min; Locomotor activity (drug-naive rats; 33 μmol/kg): 3334 ± 780 counts/60 min
–	CCCN(CCC)CC1COc2ccc(S(C)(=O)=O)cc2O1 (stereo not drawn) [Example 16, N-{[7-(METHYLSULFONYL)-2,3-DIHYDRO-1,4-BENZODIOXIN-2-YL]METHYL}-N-PROPYLPROPAN-1-AMINE]	ED50 [1]: 29 µmol/kg; Locomotor activity (drug-naive rats; 3.7 μmol/kg): 13645 ± 3301 counts/60 min; Locomotor activity (drug-naive rats; 11 μmol/kg): 11807 ± 2628 counts/60 min; Locomotor activity (drug-naive rats; 33 μmol/kg): 18642 ± 2454 counts/60 min
